Test results as given in patent publication US12180192B2, “Modulators of THR-β and methods of use thereof” (ALIGOS THERAPEUTICS, INC., priority 2019, dated 2024).
Read-outs that look alike come from different tables or passages of the source.

Tests used:
[1] = biological target: T1, human thyroid receptor alpha ligand-binding domain (LBD) (Homo sapiens, UniProt P10827); test: TR-FRET thyroid receptor alpha coactivator assay (THR biochemical assay, Assay 1); conditions: for EC50: Table 4, THR-alpha, read-out: Activity category Assay 1 (EC50, THR-alpha agonist activity); for Emax: read-out: Activity category Assay 1 THRα (Emax)
T1 construct: purchased Invitrogen
T1 sequence (P10827 163-410 isoform P10827-2 limits assumed, other chains not shown): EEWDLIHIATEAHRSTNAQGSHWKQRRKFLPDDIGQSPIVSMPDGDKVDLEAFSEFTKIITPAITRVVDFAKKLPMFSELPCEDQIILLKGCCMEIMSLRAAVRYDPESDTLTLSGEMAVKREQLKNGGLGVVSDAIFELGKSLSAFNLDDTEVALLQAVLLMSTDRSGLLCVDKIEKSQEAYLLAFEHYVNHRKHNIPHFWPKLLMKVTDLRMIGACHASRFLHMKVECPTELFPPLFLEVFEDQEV
From the text: (§1) The TR-FRET thyroid receptor beta coactivator assay was used with slight, optimized modifications of the manufacturer's protocol (Invitrogen). The assay uses a terbium-labeled anti-GST antibody, a glutathione-S-transferase (GST) tagged human thyroid receptor, beta or alpha, ligand-binding domain (LBD), and a fluorescein labeled SRC2-2 coactivator peptide. […] The energy transfer is detected as an increase in the fluorescence emission of the fluorescein acceptor, and a decrease in the fluorescence emission of the terbium donor. The assay is performed in a 384-well black plate in a final volume of 20 μL. Serial dilution of various test agonists was performed in DMSO (1% final DMSO concentration) and added to the test plate. Thyroid receptor beta LBD is added to the plate at a final concentration of 1 nM, followed by the mixture of the fluorescein labeled SRC2-2 coactivator peptide, and the terbium-labeled anti-GST antibody at final concentrations of 200 nM and 2 nM respectively. The assay is incubated for 1 hr at rt protected from light.

[2] = biological target: T2, human thyroid receptor beta ligand-binding domain (LBD) (Homo sapiens, UniProt P10828); test: TR-FRET thyroid receptor beta coactivator assay (THR biochemical assay, Assay 1); conditions: for EC50: THR-beta, TR-FRET coactivator assay, read-out: Activity category Assay 1 (EC50, THR-beta agonist); for Emax: read-out: Activity category Assay 1 THRβ (Emax)
T2 construct: purchased Invitrogen
T2 sequence (P10828 217-461 limits assumed): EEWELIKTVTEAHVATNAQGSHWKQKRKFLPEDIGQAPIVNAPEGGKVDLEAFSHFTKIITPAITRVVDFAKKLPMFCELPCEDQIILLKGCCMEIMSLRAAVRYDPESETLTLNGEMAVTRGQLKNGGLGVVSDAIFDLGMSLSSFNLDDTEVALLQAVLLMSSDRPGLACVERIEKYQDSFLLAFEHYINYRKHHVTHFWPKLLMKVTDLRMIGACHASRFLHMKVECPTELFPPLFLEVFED
From the text: as §1

| SMILES | EC50 [1] [µM] | Emax ([1]; Table 5, THRα) [%] | EC50 [2] [µM] | Emax ([2]; Table 5, Assay 1, THRβ) [%] | Activity category Assay 1 THRα (Emax) ([1]; Table 5, THRα) | Activity category Assay 1 THRβ (Emax) ([2]; Table 5, Assay 1, THRβ) | Emax [2] [%] |
| --- | --- | --- | --- | --- | --- | --- | --- |
| Nc1nn(-c2cc(Cl)c(Oc3cc(-c4ccc5ccnnc5c4)c(=O)[nH]n3)c(Cl)c2)c(=O)[nH]c1=O [Compound 110] | > 25 | < 50 | > 25 | < 50 |  |  |  |
| Cc1cccc(-c2cc(=O)[nH]nc2Oc2c(Cl)cc(-n3nc(N)c(=O)[nH]c3=O)cc2Cl)c1 [Compound 70-A, 6-amino-2-(3,5-dichloro-4-((6-oxo-4-(m-tolyl)-1,6-dihydropyridazin-3-yl)oxy)phenyl)-1,2,4-triazine-3,5(2H,4H)-dione] | > 25 | < 50 | > 25 | < 50 |  |  |  |
| N#Cc1nn(-c2cc(Cl)c(Oc3ccc4[nH]cc(C(=O)N5CCc6ccccc6C5)c4c3)c(Cl)c2)c(=O)[nH]c1=O [Compound 22] | > 25 | < 50 | > 25 | < 50 |  |  |  |
| Nc1nn(-c2cc(Cl)c(Oc3cc(-c4cnc5ccccc5c4)c(=O)[nH]n3)c(Cl)c2)c(=O)[nH]c1=O [Compound 132] | > 25 | < 50 | > 25 | < 50 |  |  |  |
| Nc1nn(-c2cc(Cl)c(Oc3cc(-c4ccc5nnccc5c4)c(=O)[nH]n3)c(Cl)c2)c(=O)[nH]c1=O [Compound 108] | > 25 | < 50 | > 25 | < 50 |  |  |  |
| Cc1cncc(-c2cc(=O)[nH]nc2Oc2c(Cl)cc(-n3ncc(=O)[nH]c3=O)cc2Cl)c1 [Compound 138] | > 25 | < 50 | > 25 | < 50 |  |  |  |
| Cc1cc(-c2cc(Oc3c(Cl)cc(-n4ncc(=O)[nH]c4=O)cc3Cl)n[nH]c2=O)ccn1 [Compound 141] | > 25 | < 50 | 1 to 25 | < 50 |  |  |  |
| CC(C)[C@H](C)c1cc(Oc2c(Cl)cc(-n3nc(N)c(=O)[nH]c3=O)cc2Cl)n[nH]c1=O [Compound 170] | > 25 | < 50 | 0.05 to 0.25 | < 50 |  |  |  |
| Nc1nn(-c2cc(Cl)c(Oc3cc(C4Cc5ccccc54)c(=O)[nH]n3)c(Cl)c2)c(=O)[nH]c1=O (single isomer, unassigned) [Compound 165, 6-amino-2-(4-((5-(bicyclo[4.2.0]octa-1(6),2,4-trien-7-yl)-6-oxo-1,6-dihydropyridazin-3-yl)oxy)-3,5-dichlorophenyl)-1,2,4-triazine-3,5(2H,4H)-dione] | 0.25 to 1 | < 50 | < 0.05 | < 50 |  |  |  |
| Cc1cc(-n2nc(C#N)c(=O)[nH]c2=O)cc(C)c1Cc1ccc2c(c1)C1(CCC1)C(=O)N2 [Compound 153, 2-(3,5-Dimethyl-4-((2′-oxospiro[cyclobutane-1,3′-indolin]-5′-yl)methyl)phenyl)-3,5-dioxo-2,3,4,5-tetrahydro-1,2,4-triazine-6-carbonitrile] | < 0.05 | < 50 | < 0.05 | < 50 |  |  |  |
| CSCc1nn(-c2cc(Cl)c(Oc3cc(C(C)C)c(=O)[nH]n3)c(Cl)c2)c(=O)[nH]c1=O [Compound 33, 2-[3,5-dichloro-4-[(5-isopropyl-6-oxo-1H-pyridazin-3-yl)oxy]phenyl]-6-[(methylsulfanyl)-methyl]-4H-1,2,4-triazine-3,5-dione] | 0.25 to 1 | < 50 | 0.25 to 1 | > 75 |  |  |  |
| Nc1nn(-c2cc(Cl)c(Oc3cc(-c4ccn5cncc5c4)c(=O)[nH]n3)c(Cl)c2)c(=O)[nH]c1=O [Compound 126] | > 25 | < 50 | > 25 | < 50 |  |  |  |
| Nc1nn(-c2cc(Cl)c(Oc3cc(C4Cc5ccccc54)c(=O)[nH]n3)c(Cl)c2)c(=O)[nH]c1=O (single isomer, unassigned) [Compound 166, 6-amino-2-(4-((5-(bicyclo[4.2.0]octa-1(6),2,4-trien-7-yl)-6-oxo-1,6-dihydropyridazin-3-yl)oxy)-3,5-dichlorophenyl)-1,2,4-triazine-3,5(2H,4H)-dione] | > 25 |  | 0.05 to 0.25 |  | C (Emax<50%) | C (Emax<50%) |  |
| CCn1nc(-c2cc(Cl)c(Oc3cc(C(C)C)c(=O)[nH]n3)c(Cl)c2)c(=O)[nH]c1=O [Compound 23] | 1 to 25 | < 50 | 1 to 25 | < 50 |  |  |  |
| Nc1nn(-c2cc(Cl)c(Oc3cc(-c4ccc5ccnn5c4)c(=O)[nH]n3)c(Cl)c2)c(=O)[nH]c1=O [Compound 122] | 1 to 25 | < 50 | 1 to 25 | < 50 |  |  |  |
| O=c1cnn(-c2cc(Cl)c(Oc3cc(-c4ccc5sccc5c4)c(=O)[nH]n3)c(Cl)c2)c(=O)[nH]1 [Compound 135] | > 25 | < 50 | > 25 | < 50 |  |  |  |
| CC(c1ccccc1)c1c[nH]c2ccc(Oc3c(Cl)cc(-n4nc(C#N)c(=O)[nH]c4=O)cc3Cl)cc12 (centres unmarked) [Compound 6, 2-(3,5-dichloro-4-[[3-(1-phenylethyl)-1H-indol-5-yl]oxy]phenyl)-3,5-dioxo-4H-1,2,4-triazine-6-carbonitrile] | > 25 | < 50 | > 25 | < 50 |  |  |  |
| CC(C)[C@@H](C)c1cc(Oc2c(Cl)cc(-n3nc(N)c(=O)[nH]c3=O)cc2Cl)n[nH]c1=O [Compound 169] | 0.25 to 1 | < 50 | < 0.05 | < 50 |  |  |  |
| Nc1nn(-c2cc(Cl)c(Oc3n[nH]c(=O)cc3-c3cccc(F)c3)c(Cl)c2)c(=O)[nH]c1=O [Compound 69-A, 6-amino-2-(3,5-dichloro-4-((4-(3-fluorophenyl)-6-oxo-1,6-dihydropyridazin-3-yl)oxy)phenyl)-1,2,4-triazine-3,5(2H,4H)-dione] | > 25 | < 50 | > 25 | < 50 |  |  |  |
| Cc1cncc(-c2cc(Oc3c(Cl)cc(-n4ncc(=O)[nH]c4=O)cc3Cl)n[nH]c2=O)c1 [Compound 137] | > 25 | < 50 | 1 to 25 | < 50 |  |  |  |
| C[C@H](c1cc(Oc2c(Cl)cc(-n3nc(N)c(=O)[nH]c3=O)cc2Cl)n[nH]c1=O)C1CCC1 [Compound 168] | 0.05 to 0.25 | 50 to 75 | < 0.05 | < 50 |  |  |  |
| CCc1cccc(-c2cc(=O)[nH]nc2Oc2c(Cl)cc(-n3nc(N)c(=O)[nH]c3=O)cc2Cl)c1 [Compound 71-A, 6-Amino-2-(3,5-dichloro-4-((4-(3-ethylphenyl)-6-oxo-1,6-dihydropyridazin-3-yl)oxy)phenyl)-1,2,4-triazine-3,5(2H,4H)-dione] | > 25 | < 50 | > 25 | < 50 |  |  |  |
| Nc1nn(-c2cc(Cl)c(Oc3n[nH]c(=O)cc3-c3ccc4ccnnc4c3)c(Cl)c2)c(=O)[nH]c1=O [Compound 111] | > 25 | < 50 | > 25 | < 50 |  |  |  |
| CC(C)c1cc(Oc2c(Cl)cc(-n3nc(CS(C)(=O)=O)c(=O)[nH]c3=O)cc2Cl)n[nH]c1=O [Compound 34, 2-[3,5-dichloro-4-[(5-isopropyl-6-oxo-1H-pyridazin-3-yl)oxy]-phenyl]-6-(methanesulfonylmethyl)-4H-1,2,4-triazine-3,5-dione] | > 25 | < 50 | 1 to 25 | < 50 |  |  |  |
| CC(C)c1cc(Oc2c(Cl)cc(-n3nc(C#N)c(=O)[nH]c3=O)c3c2CC3)n[nH]c1=O [Compound 78, 2-[4-Chloro-5-[(5-isopropyl-6-oxo-1H-pyridazin-3-yl)oxy]bicyclo[4.2.0]octa-1(6),2,4-trien-2-yl]-3,5-dioxo-4H-1,2,4-triazine-6-carbonitrile] | 1 to 25 | < 50 | 0.25 to 1 | < 50 |  |  |  |
| Nc1nn(-c2cc(Cl)c(Oc3cc(-c4cc5ccccn5n4)c(=O)[nH]n3)c(Cl)c2)c(=O)[nH]c1=O [Compound 130] | 1 to 25 | < 50 | > 25 | < 50 |  |  |  |
| Nc1nn(-c2cc(Cl)c(Oc3n[nH]c(=O)cc3-c3ccc4ccnn4c3)c(Cl)c2)c(=O)[nH]c1=O [Compound 123] | > 25 | < 50 | > 25 | < 50 |  |  |  |
| N#Cc1nn(-c2cc(Cl)c(Oc3ccc4[nH]cc(-c5ccccc5)c4c3)c(Cl)c2)c(=O)[nH]c1=O [Compound 7, 2-[3,5-dichloro-4-[(3-phenyl-1H-indol-5-yl)oxy]phenyl]-3,5-dioxo-4H-1,2,4-triazine-6-carbonitrile] | > 25 | < 50 | > 25 |  |  |  | < 50 |
| Nc1nn(-c2cc(Cl)c(Oc3n[nH]c(=O)cc3-c3ccc4nnccc4c3)c(Cl)c2)c(=O)[nH]c1=O [Compound 109] | > 25 | < 50 | > 25 | < 50 |  |  |  |
